Measured values from US4569792A, “Anti-diabetic compounds” (Eli Lilly and Company, priority 1984, dated 1986).

Legend:
Conditions in all cases: relative to human proinsulin = 1
[1] = tested on: insulin receptor (125I-labeled insulin binding to isolated fat cells); assay: Isolated Fat Cell Radioreceptor Assay
Description: Isolated fat cells were prepared by a modification [Huber, C. T., Solomon, S. S., and Duckworth, W. C., J. Clin. Invest. […] All incubations were in Krebs-Ringer-Hepes (KRH) buffer, pH 7.4, with 4% bovine serum albumin (BSA) in a total volume of 2 ml. […] At selected times, triplicate 300 μl aliquots were removed and added to microfuge tubes containing 100 μl dinonyl phthalate [see Gliemann, J., Osterlind, K., Vinten, J., and Gammeltoft, S., Biochem. Biophys. Acta. […] After centrifugation for one minute in a microfuge, the tubes were cut through the oil layer, and the cell pellet was counted using a gamma counter to determine binding.

[2] = tested on: insulin receptor (125I-insulin binding to IM-9 cells); assay: IM-9 Radioreceptor Assay
Description: IM-9 cells were grown in RPMI media containing 2mM glutamine, 25 mM HEPES, and 10% fetal bovine serum. […] Incubations were carried out in 1.5 ml microfuge tubes at 15° C. for two hours. Concentrations of stock solutions containing insulin, proinsulin, or compound of this invention used in the binding studies were established by amino acid analysis and by their absorbance at 276 nm. The cells were resuspended during the assay every 30 minutes by inverting the tubes several times. At the end of the incubation, the tubes were centrifuged for one minute in a Beckman Microfuge, the supernatant was aspirated, the tips of the tubes containing the cell pellet were excised, and the radioactivity was measured.

isolated rat adipocytes = assay: Biological Activity in Isolated Rat Adipocytes (incorporation of 2-3H-glucose in total fat cell lipid); type: cell-based
Description: Adipocytes were prepared from epididymal fat pads by a modification (Huber, supra) of the collagenase digestion procedure of Rodbell, supra. Krebs-Ringer-HEPES (KRH) buffer, pH 7.4, containing 4% bovine serum albumin and 0.55 mM glucose was used in all isolation and incubation steps.
Biological activity was assessed according to the method of Moody, A. J., Stan, M. A., Stan, M., and Glieman, J., Horm. Metab. Res. 6, 12-16 (1974) by monitoring the incorporation of 2-^3 H-glucose in total fat cell lipid. […] Radioactivity was determined in a Searle Isocap 300 liquid scintillation counter at an efficiency of approximately 30%. Blanks were prepared in which the scintillation fluid was added to the vials prior to the addition of cells. The average counts obtained from these vials were subtracted from those observed in all other samples.
Competitive binding curves and biological activity dose-response curves were analyzed using the PREFIT and ALLFIT programs [DeLean, A., Munson, P. J., and Rodbard, D., Am. J. Physiol. 235, E97-E102 (1978)] based on a four-parameter logistic model. These analyses indicated the concentration of insulin or proinsulin necessary to produce a half-maximal response, as well as the maximal and minimal values. All values are presented as the mean ± SEM.

Measured: Relative Potency

Human Proinsulin
1: all assays above
